The values that follow come from patent US10766869B2, “Triazoles for the treatment of demyelinating dieases” (Vertex Pharmaceuticals Incorporated, priority 2015, dated 2020).

For the assay, the system named is primary rat mixed cortical cells. The assay can be described thus: In vitro myelination assay (MBP positive myelin strands, fold myelin pixels above background). Type of assay: cell-based. The conditions noted are these: Rattus norvegicus; for fold induction at 1 µM: 1.0 μM compound; for fold induction at 10 µM: 10.0 μM compound. In short, it runs like this: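 Compounds at 1.0 and 10.0 μM were incubated 14 days with dissociated P1 rat cortical cells, which were then fixed and immunostained for MBP. Myelination was scored as fold MBP myelin pixels per well over the no-compound baseline.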

Setting [1] is: relative to baseline of no added compound, read-out: Fold myelin pixels above background, 1.0 μM.
The mark [2] stands for this setting: relative to baseline of no added compound, read-out: Fold myelin pixels above background, 10.0 μM.
Setting [3] is: relative to baseline of no added compound, read-out: Fold myelin pixels above background.
[4] abbreviates: read-out: Fold myelin pixels above background relative to baseline of no added compound.

Read-outs that look alike come from different tables or passages of the source.

In the case of `Cc1cc(Nc2ncn(-c3ccc(F)c(F)c3)n2)cc(N2CCC(C3COC3)CC2)c1` [Compound 169, 1-(3,4-difluorophenyl)-N-[3-methyl-5-[4-(oxetan-3-yl)-1-piperidyl]phenyl]-1,2,4-triazol-3-amine], the fold induction at 1 µM under setting [1] fell in the range of 10 to 100. Further, the fold induction at 10 µM under setting [2] was in the range of 1 to 10.
As to `Cc1cc(Nc2ncn(-c3cc(F)cc(F)c3)n2)cc(N2CC(N3CCOC[C@H]3C)C2)c1` [Compound 670, 1-(3,5-difluorophenyl)-N-[3-methyl-5-[3-[(3R)-3-methylmorpholin-4-yl]azetidin-1-yl]phenyl]-1,2,4-triazol-3-amine], under setting [3], the fold induction at 1 µM lay in the range of 10 to 100 and the fold induction at 10 µM lay within 10 to 100.
With `Cc1cc(Nc2ncn(-c3cc(F)cc(F)c3)n2)cc(C2CCN(C3COC3)CC2)c1` [Compound 221, 1-(3,5-difluorophenyl)-N-[3-methyl-5-[1-(oxetan-3-yl)-4-piperidyl]phenyl]-1,2,4-triazol-3-amine], under setting [1], the fold induction at 1 µM fell in the range of 1 to 10. For the same compound, the fold induction at 10 µM under setting [2] lay within 100 to 1000.
Regarding `Cc1nccc(-n2cnc(Nc3cc(C4CC4)cc(N4CCN(C5COC5)CC4)c3)n2)n1` [Compound 454, N-[3-cyclopropyl-5-[4-(oxetan-3-yl)piperazin-1-yl]phenyl]-1-(2-methylpyrimidin-4-yl)-1,2,4-triazol-3-amine], under setting [3], the fold induction at 1 µM is ≤ 1 and the fold induction at 10 µM lay in the range of 1 to 10.
For the compound `Cc1cc(NCCN2CC(C)OCC2C)cc(Nc2ncn(-c3cc(F)cc(F)c3)n2)c1` (centres unmarked) [Compound 1003, N1-[1-(3,5-difluorophenyl)-1,2,4-triazol-3-yl]-N3-[2-(2,5-dimethylmorpholin-4-yl)ethyl]-5-methyl-benzene-1,3-diamine], under setting [4], the fold induction at 1 µM fell in the range of 10 to 100 and the fold induction at 10 µM was ≤ 1.
Regarding `COCCCN1CCC(Nc2cc(C)cc(Nc3ncn(-c4ccccc4)n3)c2)CC1` [Compound 182, N1-[1-(3-methoxypropyl)-4-piperidyl]-5-methyl-N3-(1-phenyl-1,2,4-triazol-3-yl)benzene-1,3-diamine], under setting [1], the fold induction at 1 µM is 1000 to 10000. In addition, the fold induction at 10 µM under setting [2] is 1 to 10.
On the same counts, the results for `Brc1cc(Nc2ncn(-c3ccccc3)n2)cc(N2CCOCC2)c1` [Compound 168, N-(3-bromo-5-morpholino-phenyl)-1-phenyl-1,2,4-triazol-3-amine] are 1000 to 10000 and 1000 to 10000.
On to `Cc1cc(NCC2CN(C3CC3)CCO2)cc(Nc2ncn(-c3cc(F)cc(F)c3)n2)c1` (centres unmarked) [Compound 968, N3-[(4-cyclopropylmorpholin-2-yl)methyl]-N1-[1-(3,5-difluorophenyl)-1,2,4-triazol-3-yl]-5-methyl-benzene-1,3-diamine], for which, under setting [4], the fold induction at 1 µM fell in the range of 1 to 10 and the fold induction at 10 µM fell in the range of 1 to 10.
As for `Fc1cc(F)cc(-n2cnc(Nc3cc(N4CCN(C5COC5)CC4)cc(N4CCN(C5COC5)CC4)c3)n2)c1` [Compound 574, N-[3,5-bis[4-(oxetan-3-yl)piperazin-1-yl]phenyl]-1-(3,5-difluorophenyl)-1,2,4-triazol-3-amine], under setting [3], the fold induction at 1 µM is 100 to 1000 and the fold induction at 10 µM fell in the range of 10 to 100.
For `Fc1cc(Nc2ncn(-c3cncc(F)c3)n2)cc(N2CCOCC2)c1` [Compound 371, N-(3-fluoro-5-morpholino-phenyl)-1-(5-fluoro-3-pyridyl)-1,2,4-triazol-3-amine], the fold induction at 1 µM under setting [1] lay within 1 to 10. In addition, the fold induction at 10 µM under setting [2] was in the range of 100 to 1000.
On to `Cc1cc(Nc2ncn(-c3cc(F)cc(F)c3)n2)cc(N2CC(C)(C#N)C2)c1` [Compound 1076, 1-[3-[[1-(3,5-difluorophenyl)-1,2,4-triazol-3-yl]amino]-5-methyl-phenyl]-3-methyl-azetidine-3-carbonitrile], for which, under setting [4], the fold induction at 1 µM lay in the range of 10 to 100 and the fold induction at 10 µM is ≤ 1.
With `Cc1cc(Nc2ncn(-c3ccc(F)c(F)c3)n2)cc(OCC2(C)COC2)c1` [Compound 615, 1-(3,4-difluorophenyl)-N-[3-methyl-5-[(3-methyloxetan-3-yl)methoxy]phenyl]-1,2,4-triazol-3-amine], under setting [3], the fold induction at 1 µM fell in the range of 10 to 100 and the fold induction at 10 µM lay within 10 to 100.
As for `Cc1cc(Nc2ncn(-c3cc(F)cc(F)c3)n2)cc(N2CCN(C3CC3)CC2)c1` [Compound 482, N-[3-(4-cyclopropylpiperazin-1-yl)-5-methyl-phenyl]-1-(3,5-difluorophenyl)-1,2,4-triazol-3-amine], under setting [3], the fold induction at 1 µM lay in the range of 10 to 100 and the fold induction at 10 µM was 100 to 1000.
On to `COC(=O)N1CCCC(c2cc(C)cc(Nc3ncn(-c4ccccc4)n3)c2)C1` (centres unmarked) [Compound 143, methyl 3-[3-methyl-5-[(1-phenyl-1,2,4-triazol-3-yl)amino]phenyl]piperidine-1-carboxylate], for which the fold induction at 1 µM under setting [1] lay within 1000 to 10000. Besides, the fold induction at 10 µM under setting [2] was in the range of 1000 to 10000.
In the case of `Cc1cc(Nc2ncn(-c3cc(F)cc(F)c3)n2)cc([C@@H]2CCN(C3COC3)C2)c1` (single isomer, unassigned) [Compound 92], the fold induction at 1 µM under setting [1] lay in the range of 1000 to 10000. Further, the fold induction at 10 µM under setting [2] lay in the range of 100 to 1000.
Take `Cc1cc(Nc2ncn(-c3cc(F)cc(OC(C)C)c3)n2)cc(N2CCN(C3COC3)CC2)c1` [Compound 415, 1-(3-fluoro-5-isopropoxy-phenyl)-N-[3-methyl-5-[4-(oxetan-3-yl)piperazin-1-yl]phenyl]-1,2,4-triazol-3-amine]: under setting [3], the fold induction at 1 µM is 100 to 1000 and the fold induction at 10 µM is ≤ 1.
For `COCc1cc(-n2cnc(Nc3cc(C4CC4)cc(N4CCN(C5COC5)CC4)c3)n2)ncn1` [Compound 353, N-[3-cyclopropyl-5-[4-(oxetan-3-yl)piperazin-1-yl]phenyl]-1-[6-(methoxymethyl)pyrimidin-4-yl]-1,2,4-triazol-3-amine], under setting [1], the fold induction at 1 µM lay in the range of 1000 to 10000. For the same compound, under setting [2], the fold induction at 10 µM was 100 to 1000.
On the same counts, the results for `Cc1ccc(-n2cnc(Nc3cc(C)cc(N4CCN(C5COC5)CC4)c3)n2)cc1` [Compound 70, N-[3-methyl-5-[4-(oxetan-3-yl)piperazin-1-yl]phenyl]-1-(p-tolyl)-1,2,4-triazol-3-amine] are ≤ 1 and 10 to 100.
With `Cc1cc(Nc2ncn(-c3cc(F)cc(F)c3F)n2)cc(N2CCN(C3COC3)CC2)c1` [Compound 484, N-[3-methyl-5-[4-(oxetan-3-yl)piperazin-1-yl]phenyl]-1-(2,3,5-trifluorophenyl)-1,2,4-triazol-3-amine], under setting [3], the fold induction at 1 µM was ≤ 1 and the fold induction at 10 µM was ≤ 1.
Consider `Cc1cc(Nc2ncn(-c3ccc(F)c(F)c3)n2)cc(N2CC(N3CCCOCC3)C2)c1` [Compound 659, 1-(3,4-difluorophenyl)-N-[3-methyl-5-[3-(1,4-oxazepan-4-yl)azetidin-1-yl]phenyl]-1,2,4-triazol-3-amine], for which, under setting [3], the fold induction at 1 µM lay within 10 to 100 and the fold induction at 10 µM is 10 to 100.
With `Cc1cc(Nc2ncn(-c3cc(F)cc(F)c3)n2)cc(N2CC(CC#N)C2)c1` [Compound 921, 2-[1-[3-[[1-(3,5-difluorophenyl)-1,2,4-triazol-3-yl]amino]-5-methyl-phenyl]azetidin-3-yl]acetonitrile], under setting [4], the fold induction at 1 µM was in the range of 10 to 100 and the fold induction at 10 µM lay within 1 to 10.
For `[2H]C1([2H])OC([2H])([2H])C([2H])([2H])N(c2cc(C)cc(Nc3ncn(-c4ccc(F)c(F)c4)n3)c2)C1([2H])[2H]` [Compound 1066, 1-(3,4-difluorophenyl)-N-[3-methyl-5-(2,2,3,3,5,5,6,6-octadeuteriomorpholin-4-yl)phenyl]-1,2,4-triazol-3-amine], under setting [4], the fold induction at 1 µM was 10 to 100 and the fold induction at 10 µM was ≤ 1.
As for `Cc1cc(Nc2ncn(-c3ccccc3C#N)n2)cc(N2CCCC2)c1` [Compound 212, 2-[3-(3-methyl-5-pyrrolidin-1-yl-anilino)-1,2,4-triazol-1-yl]benzonitrile], the fold induction at 1 µM under setting [1] was ≤ 1. Further, the fold induction at 10 µM under setting [2] is ≤ 1.
Consider `Cc1cc(NCC(=O)N2CCCC2)cc(Nc2ncn(-c3cc(F)cc(F)c3)n2)c1` [Compound 993, 2-[3-[[1-(3,5-difluorophenyl)-1,2,4-triazol-3-yl]amino]-5-methyl-anilino]-1-pyrrolidin-1-yl-ethanone], for which, under setting [4], the fold induction at 1 µM lay within 1 to 10 and the fold induction at 10 µM was in the range of 10 to 100.
Consider `COCc1ccccc1-n1cnc(Nc2cc(C)cc(N3CCN(C4COC4)CC3)c2)n1` [Compound 233, 1-[2-(methoxymethyl)phenyl]-N-[3-methyl-5-[4-(oxetan-3-yl)piperazin-1-yl]phenyl]-1,2,4-triazol-3-amine], for which the fold induction at 1 µM under setting [1] was ≤ 1. Also, the fold induction at 10 µM under setting [2] was ≤ 1.
Regarding `Fc1cc(Nc2ncn(-c3cccc(C(F)(F)F)c3)n2)cc(N2CCOCC2)c1` [Compound 181, N-(3-fluoro-5-morpholino-phenyl)-1-[3-(trifluoromethyl)phenyl]-1,2,4-triazol-3-amine], the fold induction at 1 µM under setting [1] is ≤ 1. For the same compound, the fold induction at 10 µM under setting [2] fell in the range of 100 to 1000.
Consider `Cc1cc(Nc2ncn(-c3cc(F)cc(F)c3)n2)cc(C2(F)CCN(C3COC3)CC2)c1` [Compound 515, 1-(3,5-difluorophenyl)-N-[3-[4-fluoro-1-(oxetan-3-yl)-4-piperidyl]-5-methyl-phenyl]-1,2,4-triazol-3-amine], for which, under setting [3], the fold induction at 1 µM was ≤ 1 and the fold induction at 10 µM was 1 to 10.
In the case of `Cc1cc(Nc2ncn(-c3ccccc3)n2)cc(N2CC3(COC3)C2)c1` [Compound 7, N-[3-methyl-5-(6-oxa-2-azaspiro[3.3]heptan-2-yl)phenyl]-1-phenyl-1,2,4-triazol-3-amine], the fold induction at 1 µM under setting [1] was in the range of 1000 to 10000. Besides, under setting [2], the fold induction at 10 µM fell in the range of 1000 to 10000.
